Measurements: publication PMC5780470, “Copper(I)-binding properties of de-coppering drugs for the treatment of Wilson disease. α-Lipoic acid as a potential anti-copper agent” (Scientific Reports, 2018)

Target: MT2A (MT2, Cu10MT, Cu10MT2) (Oryctolagus cuniculus, UniProt P18055)
Assay: ESI-MS demetallation of Cu10MT, Hill fit
Type: binding
Conditions: C50 for Cu(I) extraction from 3 uM Cu10MT, not a protein affinity; 10 mM DTT, 20 mM ammonium acetate, pH 7.3, 25 °C; all CuMT-TTM complexes counted; no ternary complexes stated; read-out: C50 (mM) for Cu1Cox17
Description: ESI-MS demetallation of Cu10MT, Hill fit on MT2A (MT2, Cu10MT, Cu10MT2)

Chain of MT2A (MT2, Cu10MT, Cu10MT2) (P18055 whole entry): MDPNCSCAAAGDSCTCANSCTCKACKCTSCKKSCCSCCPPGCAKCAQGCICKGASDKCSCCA

IC50: 0.772 ± 0.087 mM
SMILES: CCN(CC)C(=S)S [DETC, diethyl dithiocarbamate]
